In patent US5944026A, “Tobacco products or materials resembling tobacco products containing natural substances having an antioxidative effect and processes for the preparation thereof” (priority 1994, dated 1999):
Where two headings read alike, the source gives them in different places.

Legend:
[1] = Solubility/miscibility of aromatic substances, vitamins A and E and β-carotene in natural substances used as solvents; type: physicochemical
[2] = Solubility of aromatic substances and the vitamins A and E in filter hardeners; details: for solubility in hardener TEGDA: hardener: TEGDA (triethylene glycol diacetate)
[3] = system: Salmonella typhimurium, strain TA 98; test: Ames test (TA98): antimutagenic effect of added substances on mutagenicity of cigarette smoke condensate; type: cell-based; details: graphical representation in figure
Experimental: To detect this antimutagenic action, the Ames test (loc.cit.) was carried out as a meaningful rapid test.
It was ensured in this process that work was carried out in a concentration range which was not toxic for the bacteria.

[4] = system: Salmonella typhimurium, strain TA 98; test: Ames test with S9 activation: smoke condensate of experimental cigarettes with cloves, cinnamon sticks or eugenol; type: cell-based; details: additions to cut tobacco
Experimental: Five versions of filter cigarettes which differ in the composition of the final mixture according to Table 6 and have the same tobacco base mixture were prepared in the same format and same cigarette weight (940 mg). The cloves or cinnamon sticks employed were moistened with steam, rolled and cut before mixing with tobacco.
The experimental cigarettes were smoked under standard conditions (see Example 1).

| SMILES | solubility in cinnamaldehyde as a solvent ([1]; solvent: cinnamaldehyde) | solubility in eugenol as a solvent [1] | solubility in jasminealdehyde as a solvent ([1]; solvent: jasminealdehyde) | solubility in hardener triacetin [2] | mutagenicity of cigarette smoke condensate on addition of the substance [3] | other results |
| --- | --- | --- | --- | --- | --- | --- |
| CCOc1cc(C=O)ccc1O [Ethylvanillin] | > 10 % by weight | > 10 % by weight | > 10 % by weight | > 10 % by weight |  | solubility in vitamin E acetate as a solvent [1]: < 1 % by weight; solubility in hardener TEGDA [2]: > 10 % by weight; solubility in hardener eugenol [2]: > 10 % by weight |
| COc1cc(/C=C/C(=O)CC(=O)/C=C/c2ccc(O)c(OC)c2)ccc1O [curcumin, Curcumin] |  |  |  |  | reduction of the mutagenicity |  |
| COc1cc2ccc(=O)oc2cc1O [scopoletin, 7-hydroxy-6-methoxycoumarin] |  |  |  |  | reduction of the mutagenicity |  |
| Cc1c(C)c2c(c(C)c1OC(=O)CCC(=O)O)CC[C@@](C)(CCC[C@H](C)CCC[C@H](C)CCCC(C)C)O2 [Vitamin E succinate, tocopherol succinate] | > 10 % by weight | > 10 % by weight | > 10 % by weight | < 1 % by weight |  | solubility in hardener TEGDA [2]: < 1 % by weight; solubility in hardener eugenol [2]: 10 % by weight |
| Cc1c(C)c2c(c(C)c1O)CCC(C)(CCCC(C)CCCC(C)CCCC(C)C)O2 (stereo not drawn) [Vitamin E, α-tocopherol] |  |  |  | > 10 % by weight |  |  |
| CC1=C(/C=C/C(C)=C/C=C/C(C)=C/C=C/C=C(C)/C=C/C=C(C)/C=C/C2=C(C)CCCC2(C)C)C(C)(C)CCC1 [β-carotene] | > 1 % by weight | < 1 % by weight | < 1 % by weight |  |  | solubility in vitamin E acetate as a solvent [1]: < 1 % by weight |
| CC1=C(/C=C/C(C)=C/C=C/C(C)=C/CO)C(C)(C)CCC1 [Vitamin A, retinol] |  |  |  |  |  | solubility in cinnamaldehyde as a solvent [1]: > 10 % by weight; solubility in jasminealdehyde as a solvent [1]: > 10 % by weight |
| Cc1ccc2oc(=O)ccc2c1 [6-Methylcoumarin] |  |  |  |  |  | solubility in cinnamaldehyde as a solvent [1]: > 10 % by weight; solubility in jasminealdehyde as a solvent [1]: > 10 % by weight |
| C=CCc1ccc(O)c(OC)c1 [eugenol, Eugenol] |  |  |  |  | reduction of the mutagenicity | mutagenic effect of the smoke condensate (in words) [4]: decrease the mutagenic effect of the smoke condensate |
| O=C(O)/C=C/c1ccc(O)c(O)c1 [caffeic acid, Caffeic acid] |  |  |  |  | reduction of the mutagenicity |  |
